Earlier results on 3 compounds are cited in patent US9555150B2, “Absorbent articles comprising an organic zinc salt and an anti-bacterial agent or alkali metal chloride or alkaline earth metal chloride” (SCA HYGIENE PRODUCTS AB, priority 2006, dated 2017).

The conditions of this series: measured in water at 25° C.
Turning to `C/C=C/C=C/C(=O)O` [sorbic acid], the pK is 4.76.

As to `O=C(O)c1ccccc1` [benzoic acid], the pK was 4.19.

As to `CC(=O)O` [Acetic acid, acetic acid], the pK was 4.75.
